Results taken from US20080249024A1, “Peptides facilitating or inhibiting a nterograde transport” (priority 2006, published 2008).
Several values for one entry are separate records, joined by “and”; a condition that tells them apart may be missing. Equal values may be shown once. Read-outs that look alike come from different tables or passages of the source.

Key:
[1] = molecular target: axoplasmic motors (squid giant axon); experiment: cell-based or functional assay
giant axon of the squid = experiment: Transport of peptide- or protein-conjugated fluorescent beads injected into the squid giant axon, confocal time-lapse; format: cell-based, squid (Loligo pealei); settings: for beads leaving the injection site per minute: 10^6 beads injected; for Max. Velocity / Ave. Velocity (instantaneous): beads conjugated to peptide/protein; for Ave. Velocity (instantaneous): number of moves in brackets; for transport behaviour of conjugated beads in the axon (in words): co-injected with other beads into the same axon
Protocol: The giant axon was obtained from squid (Loligo pealei) at the Marine Biological Laboratory, Woods Hole, Mass. (46). Red and green beads, each conjugated to a different peptide (1.5 nl at […]), were loaded into a mercury micropipette either as a mixture or in equal volumes separated by oil (Bearer, E. L., et al., (2000) Proc Natl Acad Sci USA 97, 8146-50; Terasaki, M., S. et al., (1995) Proc Natl Acad Sci U S A 92, 11500-3; Jaffe, L. A. & Terasaki, M. (2004) Methods Cell Biol 74, 219-42, FIG. S1). For each pair of beads the order of injection was alternated such that each color would have an opportunity to recruit motors first.
Carboxylated microspheres (beads, 0.1 μm diameter) with red (580/605 nm) and green (505/515 nm) fluorescence (Invitrogen) were washed through a Low Binding Durapore filter (100 nm cut-off, Millipore). Uncoated beads were diluted in motility buffer (Brady, S. et al., (1982) Science 218, 1129-31) and injected without further treatment.
Custom synthesized peptides (Aves Labs, Inc) were cross-linked to beads via their amino terminus to allow presentation of the carboxy end of the peptide to the cytoplasm, mimicking the physiological orientation of APP. APP constructs (C99 and APP-680) were generated by PCR from human APP-YFP in pShuttleCMV (E.-M. Mandelkow and Jacek Biernat, Max Planck Institute, Hamburg, Germany (Stamer, K., V. et al., (2002) J Cell Biol 156, 1051-63)). APP-YFP is actively transported in neurons (Stamer et al., supra). For C99, the YFP moiety was replaced with mRFP (Campbell, R. E., et al., (2002) Proc Natl Acad Sci USA 99, 7877-82.) and for APP-680 with GFP. Each construct was cross-linked to a bead of similar spectrum as the fluorescent protein, and conjugated beads individually checked for monochromic emission by confocal. […] Accuracy of all sequences was confirmed by sequencing. Recombinant protein was generated in PC12 cells and purified by anti-fluorescent protein affinity columns (Vector Labs). Protein concentrations were determined by Bio-Rad protein assay, and composition and purity determined by SDS-PAGE.
Peptides or recombinant proteins (20 μl of a 2 mg/ml stock) were mixed in 300 μl of 50 mM MES buffer with 10 μl of 2% beads for 15 min. Cross-linker (1-(3-dimethylaminopropyl)-3-ethylcarbodiimide hydrochloride; EDAC, Molecular Probes) was added to a concentration of 10 μg/ml and the solution adjusted to pH 6.5 with 1M NaOH. After 5 hr the reaction was quenched by adding 2M glycine for a final of 0.1M. Conjugation was confirmed by analyzing peptide concentrations before and after by protein assay. Protein:bead ratio was adjusted that equivalent molar amounts of each protein would be conjugated to the beads. Efficiency of conjugation was relatively similar for all peptides. Binding sites on the beads (10^6) were saturated by using 300-1000 fold excess peptide. For C99 and APP-680, protein concentration was adjusted so that 3,000 copies per bead were conjugated to the surface and unoccupied sites blocked with glycine.
Detection parameters were set to ensure that each color was uniquely detected in its appropriate channel by imaging beads on coverslips with the Zeiss LSM 510 Laser Scanning Confocal Microscope. Fluorescent bead movements in the axon were collected with 10× Plan Neofluor 0.3NA air, and 40× Achroplan 0.8NA water correctible objectives. Green and red fluorescence and phase images were collected simultaneously using Zeiss LSM510 multi-tracking.
Rates and trajectories of APP-C beads were measured by stepping through the frames in either the Zeiss LSM browser or NIH ImageJ (http://rsb.info.nih.gov/nih-image/). Only particles moving into and out of a frame were included. Rates of moving particles were statistically analyzed and graphed using Microsoft Excel.

giant axon = experiment: Comparison of velocity of JIP and APP peptide beads and carboxylated negative charge beads in the giant axon (Metamorph); format: cell-based, squid
Protocol: (§1) JIP peptide was conjugated to 100 nm fluorescent nanospheres (beads) following the protocol described in Example 1. Washed conjugated beads were injected into a freshly dissected giant squid axon and transport imaged by confocal microscopy.
Movements of beads conjugated to APP-C, JIP, or unconjugated (negative charge) after injection in the axon were measured using Metamorph imaging software (Molecular Devices). Average velocity of JIP beads was 20% faster than APP or negative charge. As is known, negative charge beads are transported in the axon but less frequently than peptide-conjugated beads.
The different surfaces of the beads influence the average rate of movements. In this experiment, movements between frames were measured only when beads moved into and out of the frame.

kinesin 3 (Kif1a) = molecular target: T1, kinesin 3 (Kif1a) (Rattus norvegicus, UniProt F1M4A4); experiment: Peptide-bead pull-down from rat brain extract, Western blot for kinesin 3; format: binding; settings: Western blot of beads and supernatants
T1 construct: tissue Pelco; host or cells: rat brain cortex extract
T1 sequence (F1M4A4 whole entry): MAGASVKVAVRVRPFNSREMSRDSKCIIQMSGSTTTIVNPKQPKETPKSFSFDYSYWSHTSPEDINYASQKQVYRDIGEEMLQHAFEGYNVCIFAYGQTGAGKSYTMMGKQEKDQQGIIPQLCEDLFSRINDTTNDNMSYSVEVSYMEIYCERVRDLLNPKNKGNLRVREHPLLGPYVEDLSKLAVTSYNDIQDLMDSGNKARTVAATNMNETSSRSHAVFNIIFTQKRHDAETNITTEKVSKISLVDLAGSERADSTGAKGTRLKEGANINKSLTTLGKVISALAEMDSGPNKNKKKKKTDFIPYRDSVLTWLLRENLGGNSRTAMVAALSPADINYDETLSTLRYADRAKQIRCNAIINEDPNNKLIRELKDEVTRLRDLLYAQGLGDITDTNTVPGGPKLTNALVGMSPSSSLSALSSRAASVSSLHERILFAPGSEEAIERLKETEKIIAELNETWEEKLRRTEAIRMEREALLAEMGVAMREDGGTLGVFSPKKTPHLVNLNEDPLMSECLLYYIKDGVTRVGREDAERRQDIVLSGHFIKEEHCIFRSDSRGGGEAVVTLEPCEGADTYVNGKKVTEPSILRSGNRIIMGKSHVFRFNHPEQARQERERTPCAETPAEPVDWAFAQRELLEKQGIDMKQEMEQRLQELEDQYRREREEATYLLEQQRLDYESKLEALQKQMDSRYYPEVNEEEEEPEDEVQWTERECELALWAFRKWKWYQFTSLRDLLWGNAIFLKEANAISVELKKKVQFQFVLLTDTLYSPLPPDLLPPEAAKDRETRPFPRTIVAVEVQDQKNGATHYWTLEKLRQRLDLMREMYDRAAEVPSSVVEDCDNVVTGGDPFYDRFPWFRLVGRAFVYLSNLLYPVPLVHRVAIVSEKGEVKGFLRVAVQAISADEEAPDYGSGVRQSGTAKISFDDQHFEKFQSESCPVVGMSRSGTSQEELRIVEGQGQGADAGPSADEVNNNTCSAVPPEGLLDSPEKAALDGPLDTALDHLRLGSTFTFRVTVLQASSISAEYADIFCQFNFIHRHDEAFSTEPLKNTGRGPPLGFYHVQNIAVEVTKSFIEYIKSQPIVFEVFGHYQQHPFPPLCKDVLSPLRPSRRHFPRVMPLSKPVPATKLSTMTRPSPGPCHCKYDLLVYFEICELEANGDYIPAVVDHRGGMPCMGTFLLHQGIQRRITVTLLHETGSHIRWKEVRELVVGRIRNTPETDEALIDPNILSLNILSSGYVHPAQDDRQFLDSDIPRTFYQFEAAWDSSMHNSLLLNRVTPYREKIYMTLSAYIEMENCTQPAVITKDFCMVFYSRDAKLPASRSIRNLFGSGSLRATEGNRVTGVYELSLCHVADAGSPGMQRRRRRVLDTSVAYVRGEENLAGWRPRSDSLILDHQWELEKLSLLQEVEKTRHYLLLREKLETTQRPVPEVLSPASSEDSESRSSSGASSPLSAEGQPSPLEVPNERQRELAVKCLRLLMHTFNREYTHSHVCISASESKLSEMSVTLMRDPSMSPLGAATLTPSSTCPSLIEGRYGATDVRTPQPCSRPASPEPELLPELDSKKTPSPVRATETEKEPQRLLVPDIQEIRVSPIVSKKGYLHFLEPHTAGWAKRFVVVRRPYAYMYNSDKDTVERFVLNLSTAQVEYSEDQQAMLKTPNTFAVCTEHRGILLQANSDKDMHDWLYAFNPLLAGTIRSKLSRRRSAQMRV
Protocol: (§2) Rat brain extract was prepared from frozen rat brain (Pelco). Rat brain was cut from a frozen block of cortex, weighed, and solubilized in 1% Triton and buffer with sonication (3 times 1 sec bursts with a Branson sonicator set at microtip 4). After clarifying centrifugation at 15,000×g for 15 min, 10 μl of extract in pulldown buffer (Lazarov et al. 2005, supra) was layered over carboxylated beads conjugated to various peptides according to the manufacturer's instructions (Dynal).

giant squid axon = experiment: JIP peptide-coated bead transport in giant squid axon, confocal microscopy; format: cell-based; settings: injection site imaged at 0 and 55 min
Protocol: as §1

kinesin 1 heavy chain = experiment: Peptide-bead pull-down from rat brain extract, Western blot for kinesin 1; format: binding; settings: Western blot of beads and supernatants
Protocol: as §2

[2] = molecular target: axoplasmic motors (squid giant axon); experiment: cell-based or functional assay; remark: listed apart in the source

Question: “C99, a polypeptide containing the C-terminal 99 amino acids of human APP (with mRFP in place of YFP) (from UniProt P05067 597-695)” was tested. Which percent of beads that move (squid giant axon, no peptide) [1] did it give?
Answer: Its percent of beads that move (squid giant axon, no peptide) is 39.5%.

Question: What about the percent of beads that move after pre-injection of soluble APP-C peptide [1] of the same molecule?
Answer: The percent of beads that move after pre-injection of soluble APP-C peptide was 10.3%.

Question: For “GEPYFEMNYNTKFQQ (listed as Homo sapiens) [APP-C^j, reference compound]”, which “beads leaving the injection site per minute” value (giant axon of the squid) is on record?
Answer: Its value is “None”.

Question: With “FVE YTC PTE DIY LE (FVEYTCPTEDIYLE) [JIP-1]” as the molecule, how does the “average velocity faster than APP or negative charge beads” value (giant axon) read?
Answer: Its value is 20%.

Question: What about the “speed relative to negative charge beads (in words)” value (giant axon) of the same molecule?
Answer: Its value is “almost twice as fast”.

Question: What about the Max velocity (giant axon; beads in the giant axon) of the same molecule?
Answer: The Max velocity was 0.96 μm/sec.

Question: What about the Ave velocity (giant axon; instantaneous velocity of beads in the axon, only beads moving into and out of the frame) of the same molecule?
Answer: Its Ave velocity is 0.5 +/− 0.01 μm/sec.

Question: And the “pull-down of kinesin 3 (Kif1a) from brain extract” value (kinesin 3 (Kif1a))?
Answer: Its value is “preferentially pulls down kinesin 3 (Kif1a)”.

Question: And the “transport of JIP beads in the axon (in words)” value (giant squid axon)?
Answer: Its value is “a stream of beads can be seen heading towards the synapse”.

Question: “GYENPTYKFFEQMQN (listed as Homo sapiens) [APP-C, tested conjugated to beads or as soluble peptide]” was tested. Which “Max. Velocity” value (giant axon of the squid) did it give?
Answer: The value was 0.9 μm/s.

Question: And the “Ave. Velocity (instantaneous)” value (giant axon of the squid)?
Answer: The value was 0.41 +/− 0.07 (227) μm/s.

Question: What about the “pull-down of kinesin 1 heavy chain from brain extract” value (kinesin 1 heavy chain) of the same molecule?
Answer: Its value is “preferentially bind to kinesin 1 heavy chain”.

Question: With “HMNCQNGKWDSDPSGTKTCI (listed as Homo sapiens) [APP-N, reference compound]” as the molecule, how does the “beads leaving the injection site per minute” value (giant axon of the squid) read?
Answer: The value was ~0.001 ×10^3 per minute.

Question: And the “transport behaviour of conjugated beads in the axon (in words)” value (giant axon of the squid)?
Answer: Its value is “remained stationary at the injection site”.

Question: What does the source list for “C99: recombinant C-terminal 99 amino acids of human APP with mRFP, full cytoplasmic domain; 3,000 copies per 100 nm bead”?
Answer: percent of beads that move, with peptide (giant axon of the squid; axon pre-injected with soluble APP-C peptide, average of 3 100-frame videos): 10.3%+/−4.4; Max. Velocity (giant axon of the squid): 1.46 μm/s; Ave. Velocity (instantaneous) (giant axon of the squid): 0.66+/−0.08 μm/s and 0.66 +/− 0.08 (194) μm/s; transport behaviour of conjugated beads in the axon (in words) (giant axon of the squid): both types of beads were transported; percent of beads that move (giant axon of the squid; without peptide, moving = translocated >3 consecutive frames, average of 3 100-frame videos, within 500 μm of injection site): 39.5%+/−4.5

Question: For “GYENPTYKYFE-MQN (GYENPTYKYFEMQN; listed as Loligo pealei) [APP-C (squid)]”, which “Max. Velocity” value (giant axon of the squid) is on record?
Answer: Its value is 0.9 μm/s.

Question: What about the “Ave. Velocity (instantaneous)” value (giant axon of the squid) of the same molecule?
Answer: The value was 0.53 +/− 0.09 (54) μm/s.

Question: With GYENPTYKFFEQMQN as the molecule, how does the percent of beads that move (squid giant axon, no peptide) [2] read?
Answer: Its percent of beads that move (squid giant axon, no peptide) is 36%.

Question: And the percent of beads that move after pre-injection of soluble APP-C peptide [2]?
Answer: The percent of beads that move after pre-injection of soluble APP-C peptide was 0%.
